{"source": "patent US20090099150A1", "about": "“Methotrexate Combinations For Treating Inflammatory Diseases” (priority 2005, published 2009)", "key": {"[1]": {"test_system": "collagen-induced arthritis", "experiment": "Clinical assessment of collagen-induced arthritis (percent arthritic rats, arthritis index)", "format": "in vivo, Lewis rats", "conditions": "CIA rats"}, "[2]": {"test_system": "type II collagen induced arthritis", "conditions": "Salvemini et al., Arthritis & Rheumatism 44:2909-2921, 2001; cited from earlier work"}, "[3]": {"test_system": "collagen-induced arthritis", "experiment": "Radiography of hind paws at day 35", "format": "in vivo, Lewis rats", "conditions": "CIA rats; for protection from bone resorption / joint pathology (FIG. 4: histological damage score and radiograph score): alone; for radiographic bone resorption / joint pathology of hind paws: methotrexate 0.15 mg/kg orally"}, "[4]": {"test_system": "inflammation", "conditions": "Salvemini et al., Science 286:304-306, 1999; cited from earlier work"}, "[5]": {"test_system": "TNF-α", "experiment": "Plasma TNF-α level (ELISA) at 35 days in collagen-induced arthritis", "format": "in vivo, Lewis rats", "conditions": "CIA rats, day 35", "protocol": "(§1) Animals were randomly divided into sixth groups (n=10 for each group); (1) Sham group receiving intraperitoneally 26 mM sodium bicarbonate buffer at pH 8.1-8.3 which constituted the vehicle for M40403; (2) CIA group which constituted rats subjected to collagen induced arthritis as described below; (3) CIA+M40403 (2 mg/kg) group in which rats subjected to collagen-induced arthritis received M40403 at 2 mg/kg i.p. every 24 h, starting from day 25; (4) CIA+MET (0.015 mg/kg) group in which rats subjected to collagen-induced arthritis received orally, methotrexate at 0.015 mg/kg starting from day 25; (5) CIA+MET (0.15 mg/kg) group in which rats subjected to collagen-induced arthritis received orally, methotrexate at 0.15 mg/kg starting from day 25; (6)\n(§2) CIA+MET+M40403 group in which rats subjected to collagen-induced arthritis received methotrexate (0.015 mg/kg; orally) and with M4043 (2 mg/kg, i.p.) starting from day 25.\n(§3) Collagen-induced arthritis was produced as follows. Bovine type II collagen was dissolved in 0.01 M acetic acid at a concentration of 2 mg/ml by stirring overnight at 4° C. Dissolved collagen was frozen at −70° C. until use. Complete Freund's adjuvant was prepared by the addition of Mycobacterium tuberculosis H37Ra at a concentration of 2 mg/ml. Before injection, the collagen was emulsified with an equal volume of complete Freund's adjuvant. Collagen-induced arthritis was elicited as previously described (Salvemini et al Arthritis & rheumatism 44:2909-2921, 2001). On day 1, Lewis rats were injected intradermally at the base of the tail with 100 μl of the emulsion (containing 100 μg of bovine type II collagen). On day 21, a second injection of type II collagen in complete Freund's adjuvant was administered.\n(§4) TNF-α and IL-1β levels were evaluated in plasma at 35 days after the induction of arthritis. The assay was carried out by using a calorimetric, commercial kit (Calbaiochem-Novabiochem Corporation, USA). The ELISA has a lower detection limit of 5 pg/ml."}, "[6]": {"test_system": "IL-1β", "experiment": "Plasma IL-1β level (ELISA) at 35 days in collagen-induced arthritis", "format": "in vivo, Lewis rats", "conditions": "CIA rats, day 35", "protocol": "as §1, §2, §3, §4"}, "[7]": {"experiment": "Body weight gain in collagen-induced arthritis", "format": "in vivo, Lewis rats", "conditions": "CIA rats", "protocol": "as §1, §2, §3"}, "[8]": {"test_system": "collagen-induced arthritis", "experiment": "Hind paw volume by plethysmometry in collagen-induced arthritis", "format": "in vivo, Lewis rats", "conditions": "CIA rats, alone"}, "[9]": {"test_system": "collagen-induced arthritis", "experiment": "Histological assessment of joint injury at day 35", "format": "in vivo, Lewis rats", "conditions": "CIA rats, methotrexate 0.15 mg/kg orally"}, "[10]": {"conditions": "methotrexate 0.015 mg/kg orally, alone"}, "[11]": {"conditions": "methotrexate 0.015 mg/kg orally"}}, "data": [{"compound": "[Cl-].[Cl-].[Mn+2].c1cc2nc(c1)CN[C@@H]1CCCC[C@H]1NCCN[C@@H]1CCCC[C@H]1NC2", "note": "[M40403]", "values": [{"measurement": "development of collagen-induced arthritis (percent of arthritic rats)", "setting": "[1]; M40403 2 mg/kg i.p. every 24 h from day 25, alone", "result": "did not significantly altered the development of collagen-induced arthritis"}, {"measurement": "arthritis index", "setting": "[1]; M40403 2 mg/kg i.p., alone", "result": "Neither M40403 (2 mg/kg) nor methotrexate. (0.015 mg/kg) treatment alone attenuated the arthritis index"}, {"measurement": "efficacy in an animal model of rheumatoid arthritis", "setting": "[2]", "result": "effective"}, {"measurement": "protection from bone resorption / joint pathology (FIG. 4: histological damage score and radiograph score)", "setting": "[3]; M40403 2 mg/kg i.p.", "result": "No significant protection"}, {"measurement": "efficacy in animal models of inflammation", "setting": "[4]", "result": "effective"}, {"measurement": "plasma level of TNF-α", "setting": "[5]; M40403 2 mg/kg i.p., alone", "result": "No significant effect"}, {"measurement": "plasma level of IL-1β", "setting": "[6]; M40403 2 mg/kg i.p., alone", "result": "No significant effect"}, {"measurement": "body weight gain", "setting": "[7]; M40403 2 mg/kg i.p., alone", "result": "significantly attenuated the loss in body weight"}, {"measurement": "hind paw volume (paw edema)", "setting": "[8]; M40403 2 mg/kg i.p.", "result": "attenuated the paw edema from day 30 to 35"}]}, {"compound": "CN(Cc1cnc2nc(N)nc(N)c2n1)c1ccc(C(=O)N[C@@H](CCC(=O)O)C(=O)O)cc1", "note": "[methotrexate, N-[4-[[(2,4-Diamino-6-pteridinyl)methyl]methylamino]benzoyl]-L-glutamic acid]", "values": [{"measurement": "development of collagen-induced arthritis (percent of arthritic rats)", "setting": "[1]; methotrexate 0.015 mg/kg orally from day 25, alone", "result": "did not significantly altered the development of collagen-induced arthritis"}, {"measurement": "arthritis index", "setting": "[1]; [10]", "result": "Neither M40403 (2 mg/kg) nor methotrexate. (0.015 mg/kg) treatment alone attenuated the arthritis index"}, {"measurement": "development of collagen-induced arthritis (percent of arthritic rats)", "setting": "[1]; methotrexate 0.15 mg/kg orally from day 25, alone", "result": "significant reduction in the percent of arthritic rats"}, {"measurement": "arthritis index", "setting": "[1]; methotrexate 0.15 mg/kg orally, between days 26 and 35 after immunization", "result": "significant suppression (P<0.01)"}, {"measurement": "histology of the paw: bone erosion and degree of arthritis (damage score)", "setting": "[9]", "result": "the bone erosion as well as the degree of arthritis were significantly reduced"}, {"measurement": "protection from bone resorption / joint pathology (FIG. 4: histological damage score and radiograph score)", "setting": "[3]; [11]", "result": "No significant protection"}, {"measurement": "radiographic bone resorption / joint pathology of hind paws", "setting": "[3]", "result": "suppression of joint pathology"}, {"measurement": "radiographic bone resorption / joint pathology of hind paws", "setting": "[3]; listed as Methogtrexate", "result": "markedly protect from bone resorption"}, {"measurement": "plasma level of TNF-α", "setting": "[5]; [10]", "result": "No significant effect"}, {"measurement": "plasma level of TNF-α", "setting": "[5]; methotrexate 0.15 mg/kg orally", "result": "significantly lower"}, {"measurement": "plasma level of IL-1β", "setting": "[6]; [10]", "result": "No significant effect"}, {"measurement": "plasma level of IL-1β", "setting": "[6]; methotrexate 0.15 mg/kg orally", "result": "significantly lower"}, {"measurement": "body weight gain", "setting": "[7]; [10]", "result": "significantly attenuated the loss in body weight"}, {"measurement": "body weight gain", "setting": "[7]; methotrexate 0.15 mg/kg orally", "result": "positively affected the weight gain"}, {"measurement": "hind paw volume (paw edema)", "setting": "[8]; [11]", "result": "attenuated the paw edema from day 30 to 35"}, {"measurement": "hind paw volume (hind paw swelling)", "setting": "[8]; methotrexate 0.15 mg/kg orally", "result": "continuously significant (P<0.001) suppression of hind paw swelling from day 26 to 35"}, {"measurement": "Emax at 0.15 mg/kg", "setting": "[8]; Rattus norvegicus, po, 672 h, methotrexate 0.15 mg/kg orally, from day 28 to 35, read-out: maximal response, suppression of hind paw swelling", "result": 70, "unit": "%"}]}]}
